PMC12469161, “Anti-cancer compound screening identifies Aurora Kinase A inhibition as a means to favor CRISPR/Cas9 gene correction over knock-out” (PLOS One, 2025)

Key:
[1] = system: eGFP locus in Hepa 1–6-eGFP cells (HDR vs NHEJ); assay: CRISPR gene-editing outcome (eGFP to BFP, flow cytometry) with ProDeliverIN CRISPR; assay type: cell-based, murine; conditions: for dosage with overall high efficacy and manageable toxicity: Hepa 1–6-eGFP
Source text: Lipid nanoparticles (LNP) carrying SpCas9, sgRNA and HDR template DNA were formulated using the components and molecular ratios described previously. 1,1′-((2-(4-(2-((2-(bis(2-hydroxydodecyl)amino)ethyl)(2-hydroxydodecyl)amino)ethyl)piperazin-1-yl)ethyl)azanediyl)bis(dodecan-2-ol) (C12-200) was acquired from CordonPharma (Plankstadt, Germany) and used as the ionizable lipid in the formulation. 1,2-dioleoyl-sn-glycero-3-phosphoethanolamine (DOPE) was acquired from Lipoid GmbH (Steinhausen, Switzerland), Cholesterol and 1,2-dimyristoyl-rac-glycero-3-methoxypolyethylene glycol-2000 (PEG-DMG) were acquired from Sigma-Aldrich, and 1,2-dioleoyl-3-trimethylammonium-propane (DOTAP) was acquired from Merck (Darmstadt, Germany). LNP were produced using microfluidic mixing with the Dolomite Microfluidics system (Dolomite Microfluidics, Royston, United Kingdom) and herring-bone micromixer chip with hydrophilic coating (Dolomite Microfluidics, catalogue number 3200401). A total flow rate of 1.5 mL/min and flow rate ratio of 2:1 were used between an aqueous outer phase containing SpCas9, sgRNA and HDR template in nuclease free water, and the lipids in 100% ethanol in the inner phase, respectively. The resulting LNP were diluted 4 times in Dulbecco’s PBS (Sigma-Aldrich). In the experiments using the Hepa 1–6 eGFP cells, ProDeliverIN CRISPR (OZ Biosciences, San Diego, USA) was used as reported previously.
(§1) Compounds were assessed in three dosages to assess the effects on gene-editing efficacy. […] Cells were incubated with these compounds for 24 hours prior to LNP addition. LNP were added to all wells at a final concentration of 20 nM SpCas9 to achieve robust genome editing. After 24 hours of co-incubation, medium was refreshed and cells were transferred to a 48 well plate for further culturing. Six days after adding compounds, cells were processed for flow cytometric analysis of the gene knock-out and gene-correction efficiencies. Briefly, a ssDNA template was used carrying two nucleotide mutations to convert the eGFP sequence to that of a blue fluorescent protein (BFP), as well as mutating the PAM sequence to ensure robust HDR. The sgRNA spacer sequence was 5’-[…]-3’, and the HDR template sequence was 5’-[…]-3’.
Flow cytometry using the BD FACS Canto II (Becton Dickinson) was used to determine cells undergoing NHEJ (eGFP and BFP negative population) and HDR (eGFP negative, BFP positive). […]
(§2) The percentage of HDR relative to total gene editing in a given cell population (hereafter named Relative HDR (% of edited cells) was calculated by dividing the absolute HDR population by the sum of gene-edited cells found in the BFP+ and eGFP- gates. Absolute HDR (% of all cells) and Absolute NHEJ (% of all cells) were analyzed where appropriate. The gating strategy is given in S1 Fig in S1 File.

HEK293T-eGFP cells [2] = assay: MTT cytotoxicity assay, 72 hours; assay type: cell-based; conditions: 0.1 µM, MTT toxicity curve (S2 Fig), two days after treatment
[3] = system: PCSK9 locus in Hepa 1–6 cells; assay: PCSK9 genome editing, Sanger sequencing and TIDER; assay type: cell-based, murine; conditions: TIDER, 0.3 µM
Description: Transfection mixtures were prepared to deliver 30 nM RNP (and where applicable 60 nM HDR template DNA) respectively using the commercial ProdeliverIN CRISPR kit. Following this, the cells were incubated for an additional 48h followed by cell lysis and DNA purification using the DNeasy Blood and Tissue kit (Qiagen, Venlo, The Netherlands) using the manufacturers protocol for cell line lysis. Subsequently, PCR was done using the primer set in S1 Table using the Phusion Hotstart Dna Polymerase (Thermo Fischer Scientific) and the recommended thermocycle conditions and PCR mix by the manufacturer. PCR products were purified using the GeneJET PCR Purification Kit (Thermo Fischer Scientific) and finally prepared for Sanger sequencing performed by Macrogen (Amsterdam, The Netherlands. Data was analyzed using the TIDER software package available at http://shinyapps.datacurators.nl/tider/ using an untreated sequencing plot as control chromatogram and a dsDNA gBlock (Integrated DNA Technologies) containing the desired mutation as reference chromatogram. Total gene editing and HDR were analyzed for S7 Figure.

HEK293T cells = assay: MTS time-resolved cytotoxicity and morphology; assay type: cell-based
Description: (§3) A narrower cytotoxicity range was determined by exposing cells to 0.1–1 µM of the tested compounds. 48 hours after treatment started, cells were washed and harvested using medium and one third of the volume was transferred to a fresh 96 well plate, analogous to how cells are treated during gene editing experiments. Subsequently, cells were cultured for another 3–5 days. In the case of 5 days, one third of the cells was again transferred into a fresh 96-well plate on day 3 to allow enough space for logarithmic cell growth during the additional incubation time. Cell viability was determined by the Promega One Step MTS assay (Promega, Madison, USA) using the manufacturer’s specifications. Relative cell viability for the Hepa 1–6-eGFP cells was calculated by normalizing the compound conditions to controls treated with DMSO only or DMSO plus gene editing formulations. For the HEK293T cells, the absolute absorbance at […] was used as it was more representative of the relative cell viability between samples.
(§4) Cell morphology was assessed using the Nikon Eclipse Ti2 microscope (Nikon Europe, Amstelveen, The Netherlands). Pictures were acquired at 10x magnification with a Nikon DSLR 10 camera using the same imaging settings within each experiment set (Nikon Europe, Amstelveen, The Netherlands).

HEK293T-eGFP cells [4] = assay: MTT cytotoxicity assay, 72 hours; assay type: cell-based; conditions: 72 h; HEK293T-eGFP cells, 3 days of incubation, MTT; read-out: IC50
Description: Cells were cultured for 16–24 hours under standard culturing conditions (5% CO2, 37 °C). […] All dose ranges were added in duplicate, followed by 72 hours of incubation. Cell viability was determined using a tetrazolium based metabolic activity assay. Briefly, 5 µL of 3-(4.5-dimethylthiazol-2-yl)-2,5-diphenyltetrazolium bromide (MTT) solution (5 mg/mL MTT in sterile PBS) was added per well, and the microplates were incubated for 4 hours at 37°C and 5% CO2 in a cell culture incubator. Next, 40 µL of 10% SDS/0.01 M HCl was added per well, and the microplates were incubated for 24–72 hours at 37°C and 5% CO2 in a cell culture incubator. Subsequently the absorbance at 570 nm and background absorbance at 720 nm were measured using the Spectramax i3x (Molecular Devices, San Jose, USA). Subsequently, the absorbance values at 720 nm were subtracted from the absorbance values at 570 nm, and the corresponding values were used to plot dose-response curves.
The data was normalized to the DMSO-treated cells (defined as 100% viability) and the empty controls (defined as 0% viability).

[5] = system: eGFP locus in HEK293T-eGFP cells (HDR vs NHEJ); assay: CRISPR gene-editing outcome (eGFP to BFP conversion, flow cytometry) with CRISPR-Cas9 LNP; assay type: cell-based
Description: as §1
Flow cytometry using the BD FACS Canto II (Becton Dickinson) was used to determine cells undergoing NHEJ (eGFP and BFP negative population) and HDR (eGFP negative, BFP positive). Data analysis was performed using Flowlogic (version 8.7). Graphpad PRISM (version 9.3.1) was used for statistical analysis and preparing graphs.
as §2

[6] = system: primary murine hepatocytes; assay: MTT cytotoxicity on primary hepatocytes; assay type: cell-based, murine (Ai9 mice); conditions: for IC50: Mus musculus, Hepatocyte
Description: Primary murine hepatocytes were harvested from Ai9 mice and cultured in 2D prior to transfection as previously reported. […] Toxicity was measured at this timepoint, and 72 hours later,. Cell viability was calculated by subtracting a medium blank from the absorption, and dividing the absorption by that of a vehicle-only control.

[7] = MTS cell viability and morphology, 5 days; assay type: cell-based, murine; conditions: mouse, Hepa 1–6-eGFP cells; 0.3 µM, MTS 5 days after start of treatment; read-out: relative cell viability
Description: as §3, §4

Hepa 1–6-eGFP cells = assay: MTS cell viability and morphology, 5 days; assay type: cell-based, murine; conditions: for cell morphology by microscopy: 0.3 µM, after 5 days, vs untreated control
Description: as §3, §4

AURKB = system: AURKB; parameters: method as in manufacturer; conditions: ref manufacturer; cited from earlier work
AURKA = system: AURKA; parameters: method as in manufacturer; conditions: ref manufacturer; cited from earlier work

Compound: COc1cc(Nc2ncc3c(n2)-c2ccc(Cl)cc2C(c2c(F)cccc2OC)=NC3)ccc1C(=O)O [Alisertib]
- increase in preferential gene correction over gene knock-out ([1]; Hepa 1–6, eGFP locus, sub-micromolar dosages): over 4 fold
- dosage with overall high efficacy and manageable toxicity [1]: 0.3 µM
- loss of cell viability (HEK293T-eGFP cells [2]): 20%
- HDR at the PCSK9 locus [3]: measurable only when alisertib was present
- toxicity at different incubation times (HEK293T cells; MTS, total incubation time varied (S5 Fig A)): did not vary significantly
- cell viability by MTS (HEK293T cells; after 2 days): not affected
- cell viability by MTS (HEK293T cells; after 5 days): dose-dependent decrease in cell viability
- metabolic activity and confluency (HEK293T cells; seven days after treatment started, at least 0.3 µM): very low metabolic activity and confluency
- IC50 (HEK293T-eGFP cells [4]): > 10 µM
- increase in preferential gene correction over gene knock-out ([5]; HEK293T, eGFP locus, sub-micromolar dosages): over 4 fold
- lowest effective concentration for preferential HDR activation ([5]; HEK293T-eGFP cells, narrow dose range): 0.3 µM
- preferential activation of HDR over NHEJ in hit validation ([5]; narrowed dose range, triplicate, vs LNP only): strong dose-dependent preferential activation of HDR over NHEJ
- effect on the NHEJ and HDR outcomes ([5]; validated hits, Fig 2B): inhibited NHEJ and improved HDR
- IC50 ([6]; 48h after exposure): 32.7 µM
- IC50 ([6]; 120h after exposure (48h incubation)): 54.8 µM
- toxicity (order of) ([6]; primary murine hepatocytes, both timepoints): 30 to 50 µM
- viability at 5 days, 0.3 µM [7]: 37%
- cell morphology by microscopy (Hepa 1–6-eGFP cells): did not change as drastically

Compound: CC(=O)NCC(=O)N1[C@@H]2CC[C@H]1c1ccc(Nc3ncc(C(F)(F)F)c(NC4CCC4)n3)cc12 [PF-03814735]
- IC50 (AURKB): 0.0005 µM
- dosage with overall high efficacy and manageable toxicity [1]: 0.2 µM
- cell morphology by microscopy (Hepa 1–6-eGFP cells): did not change as drastically
- comparative cytotoxicity of the aurora kinase inhibitors (Hepa 1–6-eGFP cells; Hepa 1–6-eGFP): clearly more drastic toxicity
